Data on 30 compounds can be found in ChEMBL document CHEMBL1128825, “Synthetic inhibitors of interleukin-6 II: 3,5-diaryl pyridines and meta-terphenyls” (Bioorg Med Chem Lett, 1995).

Active and inactive are the calls of the source. No cut-off for these calls is given here.

The subject of assay [1] is WEHI265.1. Description: In vitro inhibitory activity against lipopolysaccharide (LPS)-induced IL-6 production in murine myelomonocytic uM. Type of assay: functional, Mus musculus. Also noted: concentration or dose not given beside the values.
In assay [2] the test system is Mus musculus. The assay is described as follows: In vivo inhibition of serum IL-5 after i.p. administration of 25 mpk dose; showed no inhibition. Type of assay: functional, organism-based.
Assay [3] has as its system Mus musculus. Description: In vivo inhibition of TNF- alpha after intraperitoneal administration of 25 mpk dose; showed no inhibition. The assay is classed as functional, organism-based.
Assay [4] has as its system Mus musculus. The assay is described as follows: In vivo inhibition of serum IL-6 after intraperitoneal administration of 25 mpk dose. Type of assay: functional. The note with it: ip.
Assay [5] concerns Mus musculus. Description: In vivo inhibition of serum IL-1 after i.p. administration of 25 mpk dose; showed no inhibition. The assay is classed as functional, organism-based.
Assay [6] is filed under the species Mus musculus. Description: Inhibitory activity against serum IL-6. The assay is classed as functional, organism-based.
Assay [7] has as its system Mus musculus. Description: Effective dose required for in vivo inhibition of serum IL-6. Type of assay: functional.
Assay [8] has as its system Mus musculus. The assay is described as follows: In vivo inhibition of serum IL-6 after peroral administration of 25 mpk dose. As to conditions: po. The assay is classed as functional.
The subject of assay [9] is WEHI265.1. Description: In vitro inhibitory activity against lipopolysaccharide (LPS) -induced IL-6 production in murine myelomonocytic uM; cytotoxic. The assay is classed as functional, cell-based. As to conditions: Mus musculus.

Broadly, the Inhibition is the relative decrease from the control value, in per cent. Broadly, the inhibition in vivo is the relative decrease from the control value, in per cent. A word on the IC50: it is the concentration that inhibits the measured activity by half. A word on the ED50: it is the dose that gives a 50% effect, or the effect in half of the subjects.

For the compound `Cc1cncc(-c2ccc(O)cc2)c1`, the Inhibition in assay [1] turned out to be 7%.
In [1], `COc1ccc(-c2ccc(-c3ccc(OC)cc3)nc2)cc1` had an Inhibition of 30%.
In [1], `Oc1cccc(-c2cccc(-c3cccc(O)c3)c2)c1` showed an Inhibition of 21%.
Same read-out and setting: to `Fc1ccc(-c2cccc(-c3ccc(F)cc3)n2)cc1` belongs 44%; to `Oc1ccc(-c2cncc(Cl)c2)cc1`, 0%.
In assay [1], `COc1ccc(-c2cncc(-c3ccc(OC)cc3)c2)cc1` displayed an Inhibition of 0%.
The same measure, in the same setting: to `Oc1ccc(-c2cc(-c3ccc(O)cc3)c(Cl)nc2Cl)cc1` belongs 52%.
Take `Oc1ccc(-c2cccc(-c3ccc(O)cc3)c2)cc1`: the outcome in assay [2], in assay [3] and in assay [5] was inactive. The Inhibition in assay [1] is 85%. Further, the inhibition in vivo at 25 mg/kg in [4] stood at 88%. Further, 1500 nM corresponded to half-maximal inhibition in assay [6] (IC50). The compound also had an ED50 in assay [7] of 1.5 mg/kg.
In [1], `Oc1ccc(-c2cccnc2)cc1` returned an Inhibition of 0%.
For `Oc1ccc(-c2cncc(-c3ccc(O)cc3)c2)cc1`, the outcome in assay [2], in assay [3] and in assay [5] was inactive. The same compound displayed an Inhibition in [1] of 73%. Besides, the results for the inhibition in vivo at 25 mg/kg in assay [4] and in assay [8] were 63% and 71%, respectively. In addition, in assay [6], the midpoint of inhibition, the IC50, lay at 400 nM. The compound also showed an ED50 in [7] of 2.8 mg/kg.
Turning to `Oc1ccc(-c2cnc(Cl)c(-c3ccc(O)cc3)c2)cc1`, the Inhibition in assay [1] amounted to 61%.
The same measure, in the same setting: to `Oc1ccccc1-c1cccc(-c2ccccc2O)c1` belongs 21%; to `Oc1ccc(-c2cncc(-c3ccc(O)cc3)n2)cc1`, 55%; to `COc1ccccc1-c1cccc(-c2ccccc2OC)c1`, 22%.
`COc1cccc(-c2cccc(-c3cccc(OC)c3)c2)c1`: the Inhibition in assay [1] amounted to 24%.
`Oc1ccc(-c2ccc(-c3ccc(O)cc3)nc2)cc1` registered an Inhibition in assay [1] of 27%.
In turn, `Fc1ccc(-c2ccc(-c3ccc(F)cc3)nc2)cc1` came in with an Inhibition in [1] of 47%.
In assay [1], `c1ccc(-c2cncc(-c3ccccc3)c2)cc1` returned an Inhibition of 8%.
Same read-out and setting: the figure for `Oc1ccc(-c2cncc(-c3ccc(O)cc3)c2Cl)cc1` is 60%.
Still for that read-out and setting: the figure for `COc1ccc(-c2cccc(-c3ccc(OC)cc3)n2)cc1` is 55%.
As to `CN(C)Cc1ccc(-c2cccc(-c3ccc(CN(C)C)cc3)c2)cc1`, the inhibition result in assay [9] is “Toxic”.
For the compound `[O-][n+]1cc(-c2ccc(O)cc2)cc(-c2ccc(O)cc2)c1`, the Inhibition in assay [1] is recorded as 37%.
Same read-out and setting: the figure for `Oc1ccc(-c2cnc(O)c(-c3ccc(O)cc3)c2)cc1` is 49%.
As for `N#Cc1ncc(-c2ccc(O)cc2)cc1-c1ccc(O)cc1`, in assay [1], the Inhibition is 40%.
Same read-out and setting: the figure for `Oc1ccccc1-c1cncc(-c2ccccc2O)c1` is 23%.
The compound `Fc1ccc(-c2cncc(-c3ccc(F)cc3)c2)cc1` registered an Inhibition in [1] of 44%.
Compound `COc1ccc(-c2cccc(-c3ccc(OC)cc3)c2)cc1` displayed an Inhibition in assay [1] of 75%.
Take `CN(C)Cc1ccc(-c2cncc(-c3ccc(CN(C)C)cc3)c2)cc1`: the Inhibition in assay [1] stood at 60%.
For `Oc1cccc(-c2cncc(-c3cccc(O)c3)c2)c1`, in assay [1], the Inhibition is listed as 59%.
The same measure, in the same setting: the figure for `Oc1ccc(-c2cccc(-c3ccc(O)cc3)n2)cc1` is 23%.
